# Patent US11096986B2, “Use of a neurofilament peptide for targeting neural stem cells” (Universite D'Angers, priority 2014, dated 2021)
# Ends that are not written are not given here.
# Tests used:
# [1] = test system: neural stem cells of newborn rats; experiment: FACS internalization of FITC labelled peptide in neurospheres of newborn rats; type: cell-based, rat; settings: for percentage of newborn NSCs that internalized the peptide: 30 min, FACS
# Protocol: (§1) Primary cultures of neural stem cells are derived from the sub-ventricular zone of newborn (1-5 days) or adults (<4 months) brain Wistar rats. The dissociated cells were grown in MEM alpha (PAA) supplemented with 25 mmol/L D-glucose (Sigma), 1 mmol/L Na Pyruvate, 15 mmol/L HEPES, 5% penicillin/streptomycin (PAA) and 1% B27 (Gibco), and containing 20 ng/mL EGF (Promega). After 5-7 days, stem cells formed floating neurospheres.
# (§2) To evaluate the internalization of the FITC labelled NFL-TBS40-63 peptide by the fluorescence-activated cell sorting technique (FACS, Becton Dickinson), neurospheres were seeded in 35-mm dishes and cultured for 30 min at 37° C. in media containing FITC labelled NFL-TBS40-63 peptide at increasing concentrations. To quench the extracellular signal of the FITC labelled NFL-TBS40-63 peptide, 0.4% trypan blue (Sigma) was added before FACS analysis. To investigate the uptake mechanism, neurospheres were preincubated at 4° C. during 30 min, or with 10 mmol/L sodium azide in the presence of 6 mmol/L 2-deoxy-D-glucose to deplete cellular ATP, or with different inhibitors during 30 min at 37° C. Then 20 μmol/L FITC labelled peptide was added to the cells for 30 min at 37 C.°. Subsequently, after centrifugation (5 min at 700 rpm), cells were dissociated mechanically and washed twice with PBS, and then re-suspended in 50 μg/mL Propidium iodide (PI, Sigma). The fluorescent positive cells that incorporated the FITC labelled peptide were analyzed by flow cytometry (FACSCalibur, Becton Dickinson).
# [2] = test system: neural stem cells of adult rats; experiment: FACS internalization of FITC labelled peptide in neurospheres of adult rats; type: cell-based, rat; settings: 40 μmol/L, 30 minutes
# Protocol: as §1
# as §2, with “Subsequently, after centrifugation (5 min at 700 rpm), cells were dissociated mechanically and washed twice with PBS, and then re-suspended in 50 μg/mL Propidium iodide (PI, Sigma).” left out
# [3] = test system: adult neural stem cells in the SVZ; experiment: Intra-ventricular injection of the peptide and immunohistochemistry of the SVZ; type: in vivo, rat
# Protocol: Adult females Wistar rats were anesthetized by intraperitoneal injection of a mixture of ketamine 10% (80 mg/kg) and xylazine 2% (10 mg/kg). Animals were then placed on a stereotaxic apparatus (David Kopf instruments, Tujunga, Calif.), and a sagital incision was made through the skin to expose the cranium in which a small hole was made using a dental drill, at the appropriate coordinates (−0.8 mm anterior and 1.6 mm lateral to the bregma). A volume of […] of the FITC-peptide 1 mmol/L was injected, using a 10-μL Hamilton syringe (Hamilton glass syringe 70 RN) with a 32-G needle (Hamilton, VWR), at a depth of 4.3 mm from the outer border of the cranium into the right lateral ventricle, and connected through a cannula to a 100-μL Hamilton 22-G syringe (Hamilton glass syringe 810 RN) containing the peptide. A slow-infusion was performed by convection-enhanced delivery (CED) with an osmotic pump (Harvard Apparatus) at a flow rate of 0.5 μL/min. After injection and withdrawal of the needle (0.5 mm/min), the head skin was sutured. Animals were sacrificed 1 hour, 6 hours, or 24 hours after the injection, and brains were removed and frozen, before sectioning them using a Leica cryostat. […]
# [4] = test system: neural stem cells; experiment: Confocal microscopy of neurospheres (peptide uptake, α-tubulin microtubule network); type: cell-based, rat
# Protocol: To visualize the NFL-TBS40-63 peptide uptake in neural stem cells, neurospheres were plated on BD Cell-Tak (BD Biosciences) coverslips or LabTek chambers. After 24 h, neurospheres were incubated with 20 μmol/L FITC labelled NFL-TBS40-63 peptide for 30 min, 6 h or 72 h. Following PBS washing, cells were fixed with 4% paraformaldehyde for 15 min and washed three times in PBS. They were then incubated in a 0.5% triton X-100 permeabilization solution for 30 min and washed three times in PBS before incubation in a blocking solution (1% bovine serum albumin in 0.1% triton X-100) for 1 h. Neurospheres were then incubated overnight at 4° C. with mouse anti-α-tubulin antibody (Sigma) 1/1000. After three washes in PBS, tubulin was localized using an Alexa 568 nm anti-mouse antibody (Life Technologies) 1/200 for 2 h. Neurospheres were washed three times with PBS before adding 3 μmol/L 4′6-diaminido-2-phenylindole (DAPI, Sigma) for 5 min. Following PBS washing, coversplips were mounted with a ProLong Gold antifade solution (Life Technologies).
# [5] = test system: neural stem cells of newborn rats; experiment: Uptake mechanism by FACS (4° C., ATP depletion, endocytosis inhibitors); type: cell-based, rat
# Protocol: as §2
# [6] = test system: neural stem cells; experiment: Neurosphere forming analysis (primary neurospheres, adherence); type: cell-based, rat
# Protocol: (§3) To investigate neurosphere forming properties, 5.10^3 SVZ cells were seeded per well in a 24 wells plate in media containing 20 ng/mL EGF. Cells were incubated in the absence or presence of increasing concentrations of biotinylated peptide, or with 1 μg/mL colchicine. After 5-7 days, the total number of primary neurospheres and the percent of adherent primary neurospheres were determined in each condition by microscopy analysis, and pictures were taken with an inverted microscope and the Metamorph software. Then for self-renewal assay, primary neurospheres were collected in each condition, dissociated as single cells, and seeded in media containing 20 ng/mL EGF. After 5 days, the total number of secondary neurospheres was counted in each condition by microscopy analysis.
# [7] = test system: neural stem cells; experiment: Self-renewal assay (secondary neurospheres); type: cell-based, rat; settings: primary neurospheres cultured with peptide, dissociated, 5 days in culture medium only
# Protocol: as §3
# [8] = test system: PSA-NCAM expression on neural stem cells; experiment: PSA-NCAM expression by flow cytometry; type: cell-based, rat; settings: high peptide concentrations, 7 days
# Protocol: To quantify the PSA-NCAM expression on neural stem cells, neurospheres were seeded in 35-mm dishes and cultured for 7 days at 37° C. in media containing biotinylated NFL-TBS.40-63 peptide at increasing concentrations, or containing 1% new-born calf serum (NBCS). After dissociation, cells were incubated with the anti-PSA-NCAM antibody conjugated to R-phycoerythrin (PE) for 10 minutes at 4° C. (Miltenyi), washed and then re-suspended in 50 μg/mL PI. The fluorescent positive cells that expressed PSA-NCAM were analyzed by flow cytometry.
# [9] = test system: neural stem cells; experiment: CyQUANT cell proliferation assay; type: cell-based, rat
# Protocol: To analyse the NFL-TBS.40-63 peptide effect on the NSC proliferation, primary neurospheres were dissociated and 5.10^3 cells per well were plated on BD Cell-Tak (BD Biosciences) on 96 well microplate. Cells were treated with increased concentrations of biotinylated NFL-TBS.40-63 peptide, or with 1 μmol/L colchicine during 72 h at 37° C. After washes with PBS, cells were freezed at −80° C. Finally, the DNA concentration was analyzed using the CyQUANT cell proliferation assay kit (Molecular Probes).
# [10] = test system: neural stem cells; experiment: Cell cycle analysis by PI incorporation and FACS; type: cell-based, rat
# Protocol: […] Neurospheres were then collected in a microcentrifuge tube. After centrifugation (5 min at 700 rpm), cells were dissociated mechanically and permeabilized with PBS-Tween 0.5% and fixed with ethanol 70% before adding 1 mg/mL RNase (Invitrogen) during 30 min at 37° C. The cell suspension was diluted in 10 μg/mL PI before DNA content analysis by flow cytometry.
# [11] = test system: neural stem cells; experiment: Cell viability by Annexin V/PI staining and FACS; type: cell-based, rat
# Protocol: To analyse the cell viability in the presence of the NFL-TBS40-63 peptide, neurospheres were seeded in 35-mm dishes and then treated with increased concentrations of biotinylated peptide or with 1 μmol/L colchicine during 3 or 5 days at 37° C. Neurospheres were then collected in a microcentrifuge tube. After centrifugation (5 min at 700 rpm), cells were dissociated mechanically and stained with annexin-V FITC (Annexin-V FITC Kit, Miltenyi Biotec) for 15 min at room temperature. Finally, cells were counterstained with 1 μg/mL PI solution prior to analysis by flow cytometry.
# [12] = test system: glioblastoma cells; settings: glioblastoma cells (Bocquet et al., 2009; Bergès et al., 2012); cited from earlier work
# [13] = test system: neurones and astrocytes; settings: neurones and astrocytes (Bocquet et al., 2009; Bergès et al., 2012); cited from earlier work
# [14] = summary of proliferation and adhesion results
molecule,measurement,setting,value
"FITC-peptide: NFL-TBS40-63 peptide coupled to carboxy-fluorescein isothiocyanate (FITC) (YSSYSAPVSSSLSVRRSYSSSSGS; also: coupled to FITC, site not given here; UniProt P07196 40-63, looked up, fragment)",percentage of newborn NSCs that internalized the peptide,[1]; 5 μmol/L FITC-peptide,38.72±9.08%
same,percentage of newborn NSCs that internalized the peptide,[1]; 40 μmol/L FITC-peptide,91.07±5.13%
same,peptide uptake after quenching of surface-bound fluorescence,[1]; 0.4% trypan blue added before FACS reading,dose-dependent uptake of the peptide similar to that without quenching
same,maximum threshold of peptide uptake in adult NSC (percentage of fluorescent cells),[2],92.74±2.51%
same,localisation of the peptide in brain sections,"[3]; 1 mmol/L FITC peptide in right lateral ventricle of adult rats, 1 hour after injection","localised in the right lateral ventricle, in the ependymal cells and a part was observed in the SVZ"
same,cytotoxicity in vivo,"[3]; after injection in right lateral ventricle, confocal analyses",without causing detectable cytotoxicity
same,internalization of the peptide by confocal microscopy,"[4]; NSCs in the neurospheres and progenitor cells in the periphery, 20 μmol/L FITC labelled peptide",confirmed the internalization
"YSSYSAPVSSSLSVRRSYSSSSGS (TBS motif of the human light chain neurofilament protein, amino acids) [NFL-TBS40-63 peptide]",peptide uptake under ATP-depletion,"[5]; ATP-depleted buffer 30 minutes before peptide, 20 μmol/L FITC labelled peptide",not affected
same,peptide uptake at 4° C.,"[5]; cells at 4° C. 30 minutes before peptide, 20 μmol/L FITC labelled peptide",not affected
same,peptide uptake in the presence of inhibitors of endocytic and signalling pathways,"[5]; chlorpromazine, PMA, DAM, wortmaninn, U0126, genistein, sunitinib, gefitinib pre-treatment 30 min, 20 μmol/L peptide",not affected
same,adherence of primary neurospheres,[6]; 40 μmol/L peptide,most of primary neurospheres were adherent
same,number of primary neurospheres compared to untreated control,"[6]; increased peptide concentrations, 5 days, except for 100 μmol/L",did not change
same,adherence of primary neurospheres,[6]; peptide concentrations higher than 40 μmol/L,no floating neurospheres were observed
same,high concentrations that affect both proliferation and adhesion of neural stem cells,[6]; [14],≥ 40 µmol/L
same,low concentrations that disrupt cell proliferation without effect on cell attachment,[6]; [14],up to 20 μmol/L
same,numbers of secondary neurospheres compared to control (self-renewal),[7],significantly lower numbers of secondary neurospheres
same,PSA-NCAM expression on the neural stem cells,[8],weak decrease
same,neural stem cell proliferation (DNA concentration),"[9]; increased peptide concentrations, one week (72 h in method)",significant decrease
same,cellular cycle of NSC,"[10]; increased peptide concentrations, 48 h",remained unchanged
same,cells in G1-phase,"[10]; with or without peptide, 48 h",60-65%
same,cells in G2/M-phases,"[10]; with or without peptide, 48 h",~7%
same,cells in S-phase,"[10]; with or without peptide, 48 h",~10%
same,microtubule network of NSC,[4]; 6 hours of incubation with the peptide (20 μmol/L FITC labelled),not affected
same,NSC cell viability,[11],not modified
same,concentration at which the peptide disrupts microtubule formation and the cellular cycle,[12],higher than 10 μm
same,microtubule and cellular cycle disruption in normal cells,[13],not observed
"COc1cc2c(c(OC)c1OC)-c1ccc(OC)c(=O)cc1[C@@H](NC(C)=O)CC2 [colchicine, reference compound]",neural stem cell proliferation (DNA concentration),"[9]; colchicine, anti-proliferative agent control",significant decrease
same,cellular cycle of NSC,"[10]; 1 μg/mL colchicine, positive control",affected
same,microtubule network of NSC,[4]; colchicine,profoundly affected
same,number of viable NSC,"[11]; colchicine, three days, Annexin V-FITC and PI",strongly reduced
